Reference: US20200093838A1, “METHODS FOR TREATING AND PREVENTING ALLERGIES AND ACUTE ALLERGIC RESPONSES” (priority 2015, published 2020)
“Also recorded” adds a separate entry of the source.

Legend:
CD8+ T cells [1] = experiment: Intracellular staining (flow cytometry) of IFN-γ and IL-13 in CD8+ T cells differentiated in IL-2 or IL-2+IL-4; assay type: cell-based, mouse
Experimental: (§1) J. Allergy Clin. Immunol. 121, 864-871 e864 (2008)).
Flow cytometry analyses: For intracellular staining, 1×10^6/ml cells were washed twice with PBS containing 1% BSA, stimulated with 1 μg/ml […] in the presence of 2 μM monensin at 37° C. for 4 hours. After fixation with 4% paraformaldehyde (Electron Microscopy Sciences, Hatfield, Pa.) and permeabilization with 0.1% saponin (Sigma-Aldrich, St. Louis, Mo.), cells were washed twice with PBS containing 1% BSA, then incubated with anti-mouse CD16/CD32 (2.4G2, BD Bioscience, San Jose, Calif.) at 4° C. for 5 minutes, then stained with FITC labeled anti-mouse IFN-γ (XMG 1.2, eBioscience, San Diego, Calif.) and PE-labeled anti-mouse IL-13 (eBio13A, eBioscience, San Diego, Calif.). […] J. Allergy Clin. Immunol. 121, 864-871 e864 (2008)).

CD8+ T cells [2] = experiment: Cell viability (total cell numbers) during CD8+ T cell differentiation; assay type: cell-based, mouse; conditions: IL-2 or IL-2+IL-4; 100 nM or 1 μM; days 0 and 4
Excerpt: Data (mean±SEM) are from five experiments. **p<0.01 compared to the IL-2 group on day 4.
as §1

Tbx21 = experiment: qPCR gene expression of Tbx21 in CD8+ T cells; assay type: cell-based, mouse; conditions: IL-4 and 1,25D3 present during CD8+ T-cell differentiation
Excerpt: as §1

Gata3 = experiment: qPCR gene expression of Gata3 in CD8+ T cells; assay type: cell-based, mouse; conditions: IL-4 and 1,25D3 present during CD8+ T-cell differentiation
Excerpt: as §1

Cyp11a1 [3] = experiment: qPCR gene expression of Cyp11a1 in CD8+ T cells; assay type: cell-based, mouse; conditions: 100 nM or 1 μM during differentiation in IL-2+IL-4
Excerpt: as §1

Cyp11a1 [4] = experiment: CYP11A1 immunoblot analyses of CD8+ T cells; assay type: cell-based, mouse; conditions: 100 nM or 1 μM during differentiation in IL-2+IL-4
Excerpt: J. Allergy Clin. Immunol. 121, 864-871 e864 (2008)). […] Samples were run by sodium dodecyl sulfate polyacrylamide gel electrophoresis (SDS-PAGE) and transferred to nitrocellulose membranes. […] Horseradish peroxidase-conjugated anti-rabbit IgG (GE Healthcare, Hertfordshire, UK) was used to detect CYP11A1 protein. Mouse monoclonal anti-β-actin antibody (Sigma-Aldrich, St. Louis, Mo.) was used as an internal control. Immunoreactive bands were quantified by densitometric quantification of autoradiographs using Image J (NIMH, Bethesda, Md.), and expressed as relative CYP11A1 normalized to β-actin (Sigma-Aldrich, St. Louis, Mo.).

Cyp11a1 [5] = experiment: ELISA for pregnenolone in supernatants of CD8+ T cells (CYP11A1 enzymatic activity); assay type: cell-based, mouse; conditions: cells cultured in the presence of 1,25D3 (100 nM or 1 μM)
Excerpt: as §1

[6] = tested on: sensitized and challenged CD8-deficient mice; experiment: Secondary allergen challenge model with adoptive transfer of 1,25D3-treated CD8+ T cells: airway function (AHR); assay type: in vivo, mouse; conditions: transfer of IL-2-differentiated CD8+ T cells cultured with 1,25D3 (100 nM or 1 μM)
Experimental: 190, 4056-4065 (2013).; Ohnishi, H., et al. […] J. Allergy Clin. Immunol. 121, 864-871 e864 (2008)) with some modifications. CD8-deficient mice were sensitized with 20 μg of OVA (Calbiochem, La Jolla, Calif.) emulsified in 2.25 mg of alum (AlumImuject; Pierce, Rockford, Ill.) on days 0 and 14 by intraperitoneal injection. […] Omron Healthcare, Kyoto, JP). […] Airway function was measured and samples were collected 48 hours after the secondary challenge. […] Am. J. Respir. Crit. Care Med. 163, 173-184 (2001)). […] J. Allergy Clin. Immunol. 121, 864-871 e864 (2008)) by measuring changes in airway resistance (RL) in response to increasing doses of inhaled methacholine (MCh, Sigma-Aldrich, St. Louis, Mo.). Data were presented as percentage change from the baseline RL values after saline inhalation.

[7] = tested on: sensitized and challenged CD8-deficient mice; experiment: Secondary allergen challenge model with adoptive transfer: bronchoalveolar lavage (BAL) fluid analyses; assay type: in vivo, mouse
Experimental: 190, 4056-4065 (2013).; Ohnishi, H., et al. […] J. Allergy Clin. Immunol. 121, 864-871 e864 (2008)) with some modifications. CD8-deficient mice were sensitized with 20 μg of OVA (Calbiochem, La Jolla, Calif.) emulsified in 2.25 mg of alum (AlumImuject; Pierce, Rockford, Ill.) on days 0 and 14 by intraperitoneal injection. […] Omron Healthcare, Kyoto, JP). […] Airway function was measured and samples were collected 48 hours after the secondary challenge. […] Am. J. Respir. Crit. Care Med. 163, 173-184 (2001)). Bronchoalveolar lavage (BAL) fluid analyses: After measurement of AHR, lungs were lavaged via the tracheal tube with 1 ml of HBSS. […] J. Allergy Clin. Immunol. 121, 864-871 e864 (2008)). […] J. Allergy Clin. Immunol. 121, 864-871 e864 (2008)).

[8] = tested on: sensitized and challenged CD8-deficient mice; experiment: Secondary allergen challenge model with adoptive transfer: lung histology (PAS); assay type: in vivo, mouse; conditions: recipients of 1,25D3-treated CD8+ T cells
Experimental: 190, 4056-4065 (2013).; Ohnishi, H., et al. […] J. Allergy Clin. Immunol. 121, 864-871 e864 (2008)) with some modifications. CD8-deficient mice were sensitized with 20 μg of OVA (Calbiochem, La Jolla, Calif.) emulsified in 2.25 mg of alum (AlumImuject; Pierce, Rockford, Ill.) on days 0 and 14 by intraperitoneal injection. […] Omron Healthcare, Kyoto, JP). […] Airway function was measured and samples were collected 48 hours after the secondary challenge. […] Am. J. Respir. Crit. Care Med. 163, 173-184 (2001)). Lung histology: […] Paraffin sections (5-μm thick) were stained with periodic acid-Schiff (PAS).

[9] = tested on: CD4+ T cells from steroid-resistant asthmatics; conditions: 500 nM; cited from earlier work
Cyp11a1 [10] = conditions: inhibition of the enzymatic activity of CYP11A1; cited from earlier work
[11] = tested on: sensitized and challenged CD8-deficient mice; conditions: inhibition of the enzymatic activity of CYP11A1; cited from earlier work
[12] = IL-2 + IL-4 + TCR + VitD (100 nM)
[13] = IL-2 + IL-4 + TCR + VitD (100 nM), listed as VitD
[14] = IL-2 + IL-4 + TCR + VitD (1 μM)
[15] = cultured with SIINFEKL and IL-2+IL-4, 1,25D3 100 nM, 1 μM during differentiation
[16] = compared to recipients of untreated cells, 1,25D3 100 nM or 1 μM

C=C1/C(=C\C=C2/CCC[C@]3(C)[C@@H]([C@H](C)CCCC(C)(C)O)CC[C@@H]23)C[C@@H](O)C[C@@H]1O [1,25D3, 1,25-dihydroxy vitamin D3]
cytokine profiles (IFN-γ and IL-13) of differentiated CD8+ T cells (CD8+ T cells [1]; 1,25D3 (100 nM or 1 μM) added only during antigen (SIINFEKL) re-stimulation phase, last 4 hours, IL-2+IL-4): does not alter; also recorded: unaffected
% of positive cells, IFN-γ+ (CD8+ T cells [1]; [12]): 24.5±4.8%
% of positive cells, IFN-ν+ IL-13+ (CD8+ T cells [1]; [12]): 4%
% of positive cells, IFN-ν− IL-13− (CD8+ T cells [1]; [12]): 55.1%
% of positive cells, IL-13+ (CD8+ T cells [1]; [12]): 11.3±4.8%
% of positive cells, IFN-γ+ (CD8+ T cells [1]; [13]): 24.5%
% of positive cells, IL-13+ (CD8+ T cells [1]; [13]): 11.3%
% of positive cells, IFN-γ+ (CD8+ T cells [1]; [14]): 30.6%
% of positive cells, IFN-ν+ IL-13+ (CD8+ T cells [1]; [14]): 3.5%
% of positive cells, IFN-ν− IL-13− (CD8+ T cells [1]; [14]): 53.9%
% of positive cells, IL-13+ (CD8+ T cells [1]; [14]): 8.3%
% of positive cells, IFN-γ+ (CD8+ T cells [1]; IL-2 + IL-4 + VitD (100 nM)): 2.2%
% of positive cells, IFN-ν+ IL-13+ (CD8+ T cells [1]; IL-2 + IL-4 + VitD (100 nM)): 0.2%
% of positive cells, IFN-ν− IL-13− (CD8+ T cells [1]; IL-2 + IL-4 + VitD (100 nM)): 92.7%
% of positive cells, IL-13+ (CD8+ T cells [1]; IL-2 + IL-4 + VitD (100 nM)): 4.6%
% of positive cells, IFN-γ+ (CD8+ T cells [1]; IL-2 + IL-4 + VitD (1 μM)): 2.7%
% of positive cells, IFN-ν+ IL-13+ (CD8+ T cells [1]; IL-2 + IL-4 + VitD (1 μM)): 0.2%
% of positive cells, IFN-ν− IL-13− (CD8+ T cells [1]; IL-2 + IL-4 + VitD (1 μM)): 92.9%
% of positive cells, IL-13+ (CD8+ T cells [1]; IL-2 + IL-4 + VitD (1 μM)): 3.8%
% of positive cells, IFN-γ+ (CD8+ T cells [1]; IL-2 + TCR + VitD (100 nM)): 76.8%
% of positive cells, IFN-ν+ IL-13+ (CD8+ T cells [1]; IL-2 + TCR + VitD (100 nM)): 0.4%
% of positive cells, IFN-ν− IL-13− (CD8+ T cells [1]; IL-2 + TCR + VitD (100 nM)): 22.6%
% of positive cells, IL-13+ (CD8+ T cells [1]; IL-2 + TCR + VitD (100 nM)): 0.1%
% of positive cells, IFN-γ+ (CD8+ T cells [1]; IL-2 + TCR + VitD (1 μM)): 76.2%
% of positive cells, IFN-ν+ IL-13+ (CD8+ T cells [1]; IL-2 + TCR + VitD (1 μM)): 0.4%
% of positive cells, IFN-ν− IL-13− (CD8+ T cells [1]; IL-2 + TCR + VitD (1 μM)): 23.7%
% of positive cells, IL-13+ (CD8+ T cells [1]; IL-2 + TCR + VitD (1 μM)): 0.1%
% of positive cells, IFN-γ+ (CD8+ T cells [1]; IL-2 + VitD (100 nM)): 3.1%
% of positive cells, IFN-ν+ IL-13+ (CD8+ T cells [1]; IL-2 + VitD (100 nM)): 0%
% of positive cells, IFN-ν− IL-13− (CD8+ T cells [1]; IL-2 + VitD (100 nM)): 96.8%
% of positive cells, IL-13+ (CD8+ T cells [1]; IL-2 + VitD (100 nM)): 0.2%
% of positive cells, IFN-γ+ (CD8+ T cells [1]; IL-2 + VitD (1 μM)): 4.3%
% of positive cells, IFN-ν+ IL-13+ (CD8+ T cells [1]; IL-2 + VitD (1 μM)): 0%
% of positive cells, IFN-ν− IL-13− (CD8+ T cells [1]; IL-2 + VitD (1 μM)): 95.8%
% of positive cells, IL-13+ (CD8+ T cells [1]; IL-2 + VitD (1 μM)): 0.2%
IFN-γ+ cells (change) (CD8+ T cells [1]; [15]): increase
percentage of IL-13+ cells (change) (CD8+ T cells [1]; [15]): dose-dependent decrease
IFN-γ-producing capacity of Tc1 cells (CD8+ T cells [1]; differentiated in IL-2 alone, 1,25D3 added during differentiation): not affected
effect on cell viability (CD8+ T cells [2]): not altered; also recorded: no significant effect
Tbx21 gene expression (Tbx21): only marginally altered; also recorded: affected
Gata3 gene expression (Gata3): only marginally altered; also recorded: affected
CYP11A1 transcript levels (Cyp11a1 [3]): decreased
CYP11A1 protein levels (Cyp11a1 [4]): decreased
pregnenolone levels in supernatants (CYP11A1 enzymatic activity) (Cyp11a1 [5]): markedly reduced; also recorded: decreased
airway hyperresponsiveness (AHR) [6]: fails to induce; also recorded: failed to restore
IL-4 level in BAL fluid [7, 16]: decreased; also recorded: significantly lower
IL-5 level in BAL fluid [7, 16]: decreased; also recorded: significantly lower
IL-13 level in BAL fluid [7, 16]: decreased; also recorded: significantly lower
airway inflammation (cell composition in BAL fluid) ([7]; transfer of IL-2-differentiated CD8+ T cells cultured with 1,25D3 (100 nM or 1 μM)): failed to restore
inflammation in lung sections [8]: less inflammation
numbers of PAS+ mucus-containing goblet cells [8]: prevents; also recorded: significantly decreased numbers
in vitro effectiveness in CD4+ T cells from steroid-resistant asthmatics [9]: effective

CCC1(c2ccc(N)cc2)CCC(=O)NC1=O (stereo not drawn) [AMG, aminoglutethimide]
conversion of CD8+ T cells to IL-13 production (Cyp11a1 [10]): inhibitory effects
lung allergic responses in sensitized and challenged CD8-deficient mice [11]: failure to restore
